Four compounds from ChEMBL document CHEMBL6074680, “Structure-Based Discovery of a Series of Covalent, Orally Bioavailable, and Selective BFL1 Inhibitors” (J Med Chem, 2024) can be followed below.

Activity calls are given as the source filed them.

Series [1] addresses Induced myeloid leukemia cell differentiation protein Mcl-1 (Homo sapiens, UniProt Q07820). Put plainly: Inhibition of MCL1 (unknown origin) by FRET assay.
Another series relates to OCI-Ly10. Description: Induction of apoptosis in human OCI-Ly10 cells assessed as caspase activation incubated for 6 hrs by caspaseGlo 3/7 reagent based assay. It is filed as functional, cell-based.
A further series addresses Cannabinoid receptor 1 (Homo sapiens, UniProt P21554). Put plainly: Inhibition of human CB1 receptor.
Series [2] relates to KARPAS-422. Put plainly: Antiproliferative activity against BFL1 null human KARPAS-422 cells assessed as cell viability incubated for 24 hrs by celltiter-glo assay. It is filed as functional, cell-based. A general note: In ATP-based viability assays light output follows the ATP content of the culture.
The subject of series [3] is KARPAS-422. Put plainly: Antiproliferative activity against human KARPAS-422 cells assessed as cell survival at 10 uM incubated for 24 hrs by celltiter-glo assay. In kind it is functional, cell-based.
Series [4] concerns SU-DHL-1. Description: Induction of apoptosis in human SU-DHL-1 cells assessed as caspase activation in presence of AZD5991 incubated for 6 hrs by caspaseGlo 3/7 reagent based assay. In kind it is functional, cell-based. To be noted: SU-DHL-1, 6 h.
Series [5] relates to SU-DHL-1. Put plainly: Antiproliferative activity against human SU-DHL-1 cells assessed as cell viability incubated for 24 hrs by celltiter-glo assay. Conditions: SU-DHL-1, 24 h. In kind it is functional, cell-based.
Series [6] concerns SU-DHL-1. Description: Antiproliferative activity against human SU-DHL-1 cells assessed as cell survival upto 100 uM incubated for 24 hrs by celltiter-glo assay. In kind it is functional, cell-based.
Series [7] has as its system Mus musculus. Put plainly: Effect on cleaved caspase 3 level in po dosed SCID mouse measured for 6 hrs by MSD assay. In kind it is functional, organism-based. Conditions: dose 100-300 mg/kg.
For series [8], the system named is Mus musculus. Description: Effect on BFL1 level in po dosed SCID mouse measured for 6 hrs by MSD assay. In kind it is functional, organism-based. Conditions: dose 100-300 mg/kg.
The target of series [9] is Apoptosis regulator Bcl-2 (Homo sapiens, UniProt P10415). Description: Inhibition of BCL2 (unknown origin) by FRET assay.
A short description of series [10]: Volume of distribution at steady state in CD-1 mouse at 1 mg/kg, po or 0.5 mg/kg, iv measured upto 24 hrs by LC-MS/MS analysis. To be noted: in vivo. In kind it is ADME, organism-based.
Series [11] is described as follows: Plasma protein binding in mouse assessed as unbound fraction. In kind it is ADME, cell-free.
The nature of series [12]: Metabolic stability in mouse hepatocytes assessed as intrinsic clearance measured per 10^6 cells. It is filed as ADME, cell-based, Hepatocyte. To be noted: read-out: CLH.
The next series concerns the target Bcl-2-like protein 1 (Homo sapiens, UniProt Q07817). Description: Inhibition of Bcl-Xl (unknown origin) by FRET assay.
Series [13] can be described thus: Half life in CD-1 mouse at 1 mg/kg, po or 0.5 mg/kg, iv measured upto 24 hrs by LC-MS/MS analysis. In kind it is ADME, organism-based. To be noted: in vivo.
Series [14] is described as follows: AUC in CD-1 mouse at 1 mg/kg, po or 0.5 mg/kg, iv measured upto 24 hrs by LC-MS/MS analysis. It is filed as ADME, organism-based. Conditions: in vivo.
Series [15] can be described thus: Metabolic stability in rat hepatocytes assessed as intrinsic clearance measured per 10^6 cells. It is filed as ADME, cell-based, Hepatocyte.
A short description of series [16]: Apparent permeability across apical to basolateral side in human Caco-2 cells measured upto 120 mins by LC-MS/MS analysis. It is filed as ADME, cell-based. (Caco-2 cells form a polarised layer with tight junctions and transporters.)
Series [17] in a line: Cmax in CD-1 mouse at 1 mg/kg, po or 0.5 mg/kg, iv measured upto 24 hrs by LC-MS/MS analysis. In kind it is ADME, organism-based. To be noted: in vivo.
The nature of series [18]: Lipophilicity, log D of compound in 1-octanol at pH 7.4 incubated for 4 hrs by HPLC-UV analysis. In kind it is physicochemical. Conditions: 1-octanol / aqueous phase at pH 7.4, pH 7.4.
Series [19] is described as follows: Metabolic stability in human hepatocytes assessed as intrinsic clearance measured per 10^6 cells. In kind it is ADME, cell-based, Hepatocyte. Conditions: read-out: CLH.
The nature of series [20]: Oral bioavailability in CD-1 mouse at 1 mg/kg or 0.5 mg/kg measured upto 24 hrs by LC-MS/MS analysis. In kind it is ADME, organism-based. Conditions: in vivo.
Another series has as its target T1, BCL2A1/BID (Homo sapiens, UniProt Q16548).
T1 sequence (Q16548 whole entry): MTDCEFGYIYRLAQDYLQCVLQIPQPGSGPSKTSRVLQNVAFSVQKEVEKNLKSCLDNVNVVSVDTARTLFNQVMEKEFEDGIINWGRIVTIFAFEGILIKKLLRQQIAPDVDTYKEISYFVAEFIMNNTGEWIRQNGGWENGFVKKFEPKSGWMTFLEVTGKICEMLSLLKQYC
T1 sequence (P55957 whole entry): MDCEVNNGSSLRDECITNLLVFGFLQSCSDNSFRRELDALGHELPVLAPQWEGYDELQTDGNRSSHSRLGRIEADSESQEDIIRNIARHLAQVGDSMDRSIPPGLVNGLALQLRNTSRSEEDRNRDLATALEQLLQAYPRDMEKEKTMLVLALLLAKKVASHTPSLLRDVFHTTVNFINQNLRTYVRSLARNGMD
Put plainly: Inhibition of BFL-1/ BH3 (unknown origin) interaction incubated for 2 hrs by TR-FRET assay. It is filed as protein assay. (Time-resolved FRET reads energy transfer from a long-lived donor to a nearby acceptor.)

Series [21] is described as follows: Metabolic stability in human liver microsome assessed as intrinsic clearance. It is filed as ADME. To be noted: human liver microsomes, read-out: CLH.
A short description of series [22]: GSH reactivity in PBS buffer at pH 7.4 assessed as half life by LC-UV/MS analysis. It is filed as physicochemical.

Sequence of Apoptosis regulator Bcl-2 (P10415 whole entry): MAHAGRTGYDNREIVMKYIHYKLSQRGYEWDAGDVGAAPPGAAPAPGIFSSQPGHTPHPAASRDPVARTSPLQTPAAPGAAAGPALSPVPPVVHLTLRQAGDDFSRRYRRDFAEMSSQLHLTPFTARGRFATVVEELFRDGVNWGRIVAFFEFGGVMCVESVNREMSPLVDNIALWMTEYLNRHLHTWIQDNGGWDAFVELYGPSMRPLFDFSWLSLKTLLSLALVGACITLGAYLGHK
Sequence of Bcl-2-like protein 1 (Q07817 whole entry): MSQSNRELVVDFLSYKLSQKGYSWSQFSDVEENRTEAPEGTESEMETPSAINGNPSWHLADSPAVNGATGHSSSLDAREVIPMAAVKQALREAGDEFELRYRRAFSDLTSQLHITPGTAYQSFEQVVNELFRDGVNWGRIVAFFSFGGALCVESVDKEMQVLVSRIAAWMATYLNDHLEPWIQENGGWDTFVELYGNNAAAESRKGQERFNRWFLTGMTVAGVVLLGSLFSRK
Sequence of Cannabinoid receptor 1 (P21554 whole entry): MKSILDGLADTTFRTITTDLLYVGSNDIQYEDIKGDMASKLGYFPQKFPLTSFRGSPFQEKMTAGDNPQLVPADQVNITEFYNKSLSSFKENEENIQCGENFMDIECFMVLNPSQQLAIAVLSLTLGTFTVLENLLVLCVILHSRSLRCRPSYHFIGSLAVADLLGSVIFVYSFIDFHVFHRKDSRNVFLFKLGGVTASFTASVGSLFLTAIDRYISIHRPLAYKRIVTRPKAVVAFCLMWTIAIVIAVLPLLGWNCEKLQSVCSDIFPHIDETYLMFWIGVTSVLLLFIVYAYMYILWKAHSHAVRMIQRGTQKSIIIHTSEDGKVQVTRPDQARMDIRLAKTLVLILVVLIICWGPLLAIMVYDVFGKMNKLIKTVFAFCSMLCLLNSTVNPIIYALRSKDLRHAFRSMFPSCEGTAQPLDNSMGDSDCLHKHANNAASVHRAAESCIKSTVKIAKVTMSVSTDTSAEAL
Sequence of Induced myeloid leukemia cell differentiation protein Mcl-1 (Q07820 whole entry): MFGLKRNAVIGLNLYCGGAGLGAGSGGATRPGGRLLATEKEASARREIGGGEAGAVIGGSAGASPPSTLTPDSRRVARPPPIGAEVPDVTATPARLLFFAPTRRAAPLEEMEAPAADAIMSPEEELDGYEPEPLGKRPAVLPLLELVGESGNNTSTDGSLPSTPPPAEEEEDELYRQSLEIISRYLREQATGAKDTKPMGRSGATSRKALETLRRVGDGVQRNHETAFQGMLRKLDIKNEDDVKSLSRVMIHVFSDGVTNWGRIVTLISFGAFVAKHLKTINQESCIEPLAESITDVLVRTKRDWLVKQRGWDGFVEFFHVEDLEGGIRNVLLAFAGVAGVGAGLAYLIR

Broadly, the IC50 is the concentration that gives 50% inhibition. In general, EC50 refers to the midpoint of the concentration-response curve. With `C=CC(=O)N(c1ccc(O[C@@H]2CC[C@@H](N)C2)c(F)c1)[C@@H](C)c1ccc(Cl)cc1`, the IC50 (in series [1]; against Cannabinoid receptor 1) was above 100000 nM each time. Besides, the outcome in the series on OCI-Ly10, in the series on KARPAS-422 [2] and in the series with SU-DHL-1 [6] was Active. In the series with KARPAS-422 [3], the outcome was inactive. For the same compound, the concentration giving a half-maximal response (EC50) in the series on SU-DHL-1 [4] stood at 350 nM; in the series with SU-DHL-1 [5] it was 250 nM. Besides, the Activity result with Mus musculus [7] and in the series on Mus musculus [8] was “Dose-dependent-effect” throughout.

The term fraction unbound denotes the share of the substance not bound to proteins or other matrix. What is called half-life is the time needed for the level to fall by half in the phase considered. One may read the AUC as the area under the concentration-time curve, a measure of exposure. As usually defined, the Papp A→B is how fast a substance crosses the layer from the apical side. The term Cmax denotes the highest concentration seen after dosing. Broadly, the logD is the decadic logarithm of the distribution of all forms, ionised or not, between an organic phase and buffer at a given pH. A lower logD goes with lower lipophilicity. As a reminder, the bioavailability is dose-corrected exposure relative to a reference, in per cent. A higher bioavailability goes with good availability. Take `C=CC(=O)N(c1ccc(O[C@@H]2CC[C@@H](NC(=O)N[C@@H]3CCS(=O)(=O)C3)C2)c(F)c1)[C@@H](C)c1ccc(Cl)cc1`: the values for the concentration for half-maximal inhibition (IC50) (in series [9]; against Bcl-2-like protein 1; on BCL2A1/BID) were above 30000 nM, above 30000 nM and 8.5 nM, respectively. Besides, in series [10], the Vdss came to 4 L/kg. Moreover, the free fraction (fraction unbound) in [11] is 0.027. Further, the hepatocyte CLint in series [12] was 69 µL/min/1e6 cells; in series [15] (rat hepatocytes, read-out: CLH) it was 59 µL/min/1e6 cells; in [19] it was 7.4 µL/min/1e6 cells. Further, the EC50 stood at 83 nM with SU-DHL-1 [4] and 190 nM with SU-DHL-1 [5]. The half-life in series [13] is 3.1 h. Also, the exposure (AUC) at 24 h in series [14] stood at 0.19 µM·h. Moreover, in series [16], the apical-to-basolateral permeability (Papp A→B) at 2 h was below 11 ×10⁻⁶ cm/s. Moreover, in series [17], the highest concentration (Cmax) was 53 nM. In addition, the logD at 4 h in series [18] was found to be 3.7. Besides, the bioavailability in series [20] is 37%.

As for `C=CC(=O)N(c1cc(F)c(O[C@@H]2CC[C@@H](N)C2)cc1C)[C@@H](C)c1ccc(Cl)cc1`, the microsomal CLint in series [21] is 9.4 µL/min/mg. In [22], the half-life turned out to be 4.47 h. Moreover, in the series with SU-DHL-1 [4], the concentration giving a half-maximal response (EC50) was 530 nM. The hepatocyte CLint in [15] (hepatocytes) was determined as 12 µL/min/1e6 cells. This compound showed a logD at 4 h in [18] of 2.7. Half-maximal inhibition against BCL2A1/BID (IC50) required 31 nM.

As for `C=CC(=O)N(c1ccc(O[C@@H]2CC[C@@H](NC(=O)N[C@@H]3CCS(=O)(=O)C3)C2)c(Cl)c1)[C@@H](C)c1ccc(Cl)cc1`, the IC50 was above 30000 nM in [9], above 30000 nM at Bcl-2-like protein 1 and 5.4 nM against BCL2A1/BID. The Vdss in series [10] came out at 4.1 L/kg. Moreover, the fraction unbound in series [11] worked out at 0.013. Also, the hepatocyte CLint was 42 µL/min/1e6 cells in series [12]; 55 µL/min/1e6 cells in series [15] (rat hepatocytes, read-out: CLH); 11 µL/min/1e6 cells in [19]. Also, the half-maximal effective concentration (EC50) came to 38 nM in the series with SU-DHL-1 [4] and 48 nM in the series with SU-DHL-1 [5]. The half-life in series [13] was 0.75 h. In addition, in series [14], the AUC at 24 h amounted to 0.036 µM·h. In addition, the apical-to-basolateral permeability (Papp A→B) at 2 h in series [16] is 16 ×10⁻⁶ cm/s. Also, in series [17], the concentration peaked (Cmax) at 15 nM. For the same compound, the logD at 4 h in series [18] amounted to 4.2. The same compound gave a bioavailability in series [20] of 16%.
